In one series the target is T1, p-tau isoform 1N4R (Homo sapiens, UniProt P10636).
T1 construct: made in house
It counts as biochemical. The settings on record: protein 60 μM, compound 600 μM (1:10), 24 hours at 37° C. On the procedure:
(§1) To confirm the general anti-fibrillar effect of compound 10, transmission electron microscopy (TEM) was used as an orthogonal assay. After incubating recombinant proteins (at 60 μM) with 600 μM compound 10 for 24 hours at 37° C., TEM was utilized to detect fibril formation.^32 A volume of 10 μL was applied on a 400-mesh Formvar-carbon-coated copper grid (Electron Microscopy Sciences, Hatfield, PA). The grids were incubated for 1 minute and washed three times with distilled water. They were carefully air-dried and incubated for 1 minute in a fresh solution of 1% uranyl acetate. Samples were air-dried and observed using a transmission microscope. Visualization of the grids was performed with transmission electron microscopy (JEOL 1400 Flash, Japan). Acquisition of pictures was performed with the following settings: accelerating voltage of 100 kV and magnification of 40k.

For series [1], the target named is T2, α-syn (Homo sapiens, UniProt P37840).
T2 construct: purchased rPeptide
Nature of the series: Transmission electron microscopy (TEM) of α-syn fibrils. Particulars: protein 60 μM, compound 600 μM (1:10), 24 hours at 37° C. It counts as biochemical. On the procedure:
as §1

For series [2], the target named is T3, tau isoform 2N4R (Homo sapiens, UniProt P10636).
T3 construct: made in house; host or cells: E. coli BL21(DE3)
T3 sequence (P10636 1-441 isoform P10636-8): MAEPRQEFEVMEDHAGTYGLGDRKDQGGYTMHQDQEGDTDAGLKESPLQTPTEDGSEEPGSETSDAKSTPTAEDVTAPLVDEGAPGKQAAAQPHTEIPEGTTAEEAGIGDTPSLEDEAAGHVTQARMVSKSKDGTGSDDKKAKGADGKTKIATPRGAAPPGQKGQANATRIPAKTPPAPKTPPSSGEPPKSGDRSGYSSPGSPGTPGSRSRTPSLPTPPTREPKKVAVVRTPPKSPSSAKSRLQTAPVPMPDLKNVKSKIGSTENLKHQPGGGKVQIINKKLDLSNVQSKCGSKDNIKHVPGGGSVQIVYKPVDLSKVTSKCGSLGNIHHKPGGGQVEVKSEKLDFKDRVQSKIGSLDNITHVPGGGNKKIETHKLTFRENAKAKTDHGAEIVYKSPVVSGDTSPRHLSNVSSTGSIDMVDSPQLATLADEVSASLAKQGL
Nature of the series: TEM of tau isoform 2N4R fibrils. Particulars: protein 60 μM, compound 600 μM (1:10), 24 hours at 37° C. It counts as biochemical. Here is the method: (§2) Chemical and peptide source. DMSO and thioflavin-T (ThT) were purchased from Alfa Aesar (Ward Hill, MA). Procuration of recombinant α-syn was from rPeptide (WatKinsville, GA). The recombinant p-tau isoform 1N4R was prepared as published previously.^31, 36 Concerning the preparation of tau 2N4R, bacterial expression plasmid consisting of the vector pRK172 carrying a cDNA encoding the human Tau 2N4R isoform was a kind gift of Dr. David Eliezer (Weill Cornell Medicine). For protein expression, E. coli BL21(DE3) cells were transformed with the plasmid and grown in LB media supplemented with ampicillin (100 μg/mL). Protein over-expression was induced by the addition of 1 mM IPTG for 4 h at 37° C., and cells were pelleted by centrifugation at 6,000 g for 15 min at 4° C. The cells were resuspended in lysis buffer (20 mM MES, 400 mM NaCl, 0.2 mM MgCl2, 1 mM EGTA, protease inhibitor cocktail (P8340, Sigma Aldrich), 0.25 mg/mL lysozyme, and 1 μg/mL DNase I, pH 6.8) and lysed by a French press cell disruptor at 4° C., and the lysate was boiled for 20 min. Denatured proteins were pelleted by centrifugation at 30,000 g for 30 min at 4° C., and the supernatant was dialyzed overnight against cation exchange buffer (20 mM MES, 50 mM NaCl, 1 mM MgCl2, 1 mM EGTA, 2 mM DTT, 0.1 mM PMSF, pH 6.8). The dialysate was loaded onto a HiPrep SP HP column, and proteins were eluted with a linear gradient ranging from 50 mM to 1 M NaCl. Fractions containing tau isoform 2N4R were pooled, and the resulting protein solution was dialyzed against PBS (pH 7.4) and stored at −80° C.
To confirm the general anti-fibrillar effect of compound 10, transmission electron microscopy (TEM) was used as an orthogonal assay. After incubating recombinant proteins (at 60 μM) with 600 μM compound 10 for 24 hours at 37° C., TEM was utilized to detect fibril formation.^32 A volume of 10 μL was applied on a 400-mesh Formvar-carbon-coated copper grid (Electron Microscopy Sciences, Hatfield, PA). The grids were incubated for 1 minute and washed three times with distilled water. […]

The target in series [3] is T3, tau isoform 2N4R. Nature of the series: ThT fluorescence assay of tau isoform 2N4R fibril formation. It counts as biochemical. The settings on record: compound 100 μM, tau 2N4R 6 μM. Here is the method:
as §2

Series [4] relates to M17D-TR/αS3K::YFP neuroblastoma cells. Nature of the series: α-syn inclusion formation in dox-inducible neuroblastoma cells. It counts as cell-based. On the procedure: (§3) The dox-inducible neuroblastoma cell line M17D-TR/αS3K::YFP was used to evaluate the effect of compounds in preventing the formation of inclusion following induction with Dox. Dox-inducible neuroblastoma cells M17D-TR/αS-3K::YFP have been used previously. 96-well plates were used with cellular density of 30,000 cells per well. Compounds were added after 24 h and aS-3K::YFP transgene expression was induced […]. Induction was done by adding 1 μg per mL (final concentration) dox to culture media. Cells were incubated in the Incucyte Zoom 2000 platform (Essen Biosciences) and images (green, bright field) were taken continuously. Endpoint analysis of inclusion formation or growth was performed 48 h after induction (96 h after plating). The Incucyte processing definition ‘Inclusions’ was created as follows: Parameters, Fixed Threshold, Threshold (GCU) 50; Edge Split On, Edge Sensitivity 100; Cleanup, Hole Fill (μm^2): 10, Adjust Size (pixels): 0; Filters, Area (μm^2): max 50, Mean Intensity: min 60, Integrated Intensity: min 2000. […] As described previously for the evaluation of protein expression by SDS-PAGE and Western Blotting in the LiCor system, αS-specific monoclonal antibody 4B12 (Thermofisher, Waltham, MA; 1:1000) and a polyclonal antibody to GAPDH (Sigma-Aldrich, St. Louis, MO, G9545; 1:5000) were used.

Test in series [5]: as above
It counts as cell-based. Particulars: human, m17d neuroblastoma cells; read-out: concentration from which a small level of toxicity is seen (cell confluence). On the procedure: as §3

The target of series [6] is T2, α-syn. Nature of the series: PICUP cross-linking assay of α-syn oligomer formation. It counts as biochemical. Here is the method:
PICUP is a technique in which oligomer formation is induced by cross-linking. To induce oligomerization by cross-linking, α-syn (from Rpeptide, LLC) and tau isoform 2N4R were diluted in 10 mM phosphate buffer (pH 7.4) to reach a final concentration of 10 μM. Different compounds were added to the protein solution at a final concentration of 50 μM, resulting in a molar ratio of 1:5. To confirm the gradual effect of compounds on the inhibition of α-syn oligomerization, compounds were tested at final concentration of 3.125, 6.25, 12.5, 25, and 50 μM. The controls consisted of samples without light exposition, without Ru(bpy) or ammonium persulfate, and without compound (i.e., 0.125% DMSO). The cross-linking reaction was initiated by the addition of 2 μL of Ru(bpy) (300 μM final concentration) and 2 μL ammonium persulfate (6 mM final concentration).^32 Samples were irradiated immediately. Light exposure was of a 1 second duration for α-syn and a 3 second duration for tau isoform 2N4R, with a 53 W (120 V) incandescent lamp installed in a homemade dark-box. Each tube contained a final volume of 20 μL. After irradiation, 8.3 μL of Laemmli loading buffer containing 15% 0-mercaptoethanol was immediately added to the solution, followed by incubation at 95° C. for 10 min. The cross-linked samples were separated on a 16% SDS-PAGE gel and visualized by Coomassie blue staining.

Series [7] in a line: Half-life and brain penetration in mice. It counts as in vivo. Particulars: CD1 mice, 1 mg/kg. An excerpt:
The concentration ration plasma:brain is near to one which is adequate.

“Also recorded” adds a separate entry of the source.

T1 sequence (P10636 1-412 isoform P10636-7): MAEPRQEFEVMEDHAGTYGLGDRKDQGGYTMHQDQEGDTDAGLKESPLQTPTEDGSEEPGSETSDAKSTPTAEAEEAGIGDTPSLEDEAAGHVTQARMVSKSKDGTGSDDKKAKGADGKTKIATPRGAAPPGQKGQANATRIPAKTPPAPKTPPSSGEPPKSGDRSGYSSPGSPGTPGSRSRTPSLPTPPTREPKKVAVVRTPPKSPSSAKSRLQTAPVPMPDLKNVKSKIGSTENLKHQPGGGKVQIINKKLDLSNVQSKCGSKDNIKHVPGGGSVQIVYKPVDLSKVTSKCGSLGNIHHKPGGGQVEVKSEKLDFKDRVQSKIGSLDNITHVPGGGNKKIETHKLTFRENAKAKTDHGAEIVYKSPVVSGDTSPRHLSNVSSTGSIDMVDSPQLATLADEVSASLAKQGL

Regarding `c1cc(Nc2ncnc(Nc3cccc4[nH]ccc34)n2)c2cc[nH]c2c1` [Compound 10, N2,N4-bis(1H-indol-4-yl)-1,3,5-triazine-2,4-diamine], the “p-tau isoform 1N4R fibril ultrastructure (TEM)” value at p-tau isoform 1N4R is on record as “less fibrils resulted from this treatment”. For the same compound, on α-syn [1], the “α-syn fibril ultrastructure (TEM)” value is given as “a range of shorter fibrils to amorphous protein; also recorded: rare short fibrils”. In addition, the “tau isoform 2N4R fibril ultrastructure (TEM)” value on tau isoform 2N4R [2] is listed as “needle-shaped short fibrils; also recorded: very short needle shaped fibrils admixed with debris”. Moreover, the “elongation rate of tau isoform 2N4R fibrillization” value at tau isoform 2N4R [3] is recorded as “slower elongation rate”. Moreover, at tau isoform 2N4R [3] (heparin 1.5 μM), the “tau isoform 2N4R fibrillization (in words)” value was “markedly inhibited tau isoform 2N4R fibrillization”. For the same compound, the minimal effective concentration in series [4] (Neuroblastoma cell, read-out: concentration from which α-syn inclusion body formation is reduced) is no less than 2.5 µM. Further, the “α-syn expression levels (Western blot)” value in series [4] (compound 10 μM) is reported as “reduced”. In series [4] (compound 40 μM), the “toxicity (cell confluence, in words)” value is given as “more intense toxicity”. In series [4] (compound 7: 2.5 to 20 μM, compound 10: 2.5 to 40 μM, readout 96 h after plating, vs 0.1% DMSO), the “α-syn inclusion formation (punctate YFP signal, in words)” value is “reduced α-syn inclusion formation”. The MCC in series [5] is no less than 10 µM. Also, the “α-syn oligomer formation (PICUP, in words)” value at α-syn [6] (compound 50 μM, high molecular weight oligomers around 50 kDa) was “inhibited both α-syn and tau oligomer formation”. Further, the “α-syn oligomerization at different concentrations (PICUP)” value on α-syn [6] (compound 3.125 to 50 μM) is “effective in reducing oligomerization of α-syn and tau isoform 2N4R in a dose-dependent manner”. Moreover, in series [7], the “concentration ratio plasma:brain” value is listed as “near to one”, the “crossing of the blood brain barrier” value was “crossed the blood brain barrier” and the half-life result was “short half-life”.
